Our source for the IC50 and Ki values is patent EP0775133B1, “NAPHTHALENE AMIDES HAVING LEUKOTRIENE-ANTAGONISTIC ACTION” (LABORATORIOS MENARINI S.A., priority 1994, dated 1996).

The structures appear in SMILES notation. Where a name gives a salt, the structure may show the parent alone.

The test system of assay [1] is mienteric plexus of guinea-pig isolated ileum. As to the kind of experiment: Inhibition of LTD4-induced contractions in the mienteric plexus of guinea-pig isolated ileum. The conditions noted are these: LTD4 3 nM, compound incubated 2.5 minutes. The procedure: Inhibition test of the contractions induced by LTD4 in the mienteric plexus of quinea-pig isolated ileum.
The antagonistic activity of the compounds of the present invention in the isolated organ was evaluated as its ability to inhibit the contraction caused by LTD4 in the mienteric plexus of the ileum of Dunkin Hartley male albino guinea-pig, weighing 300-350 g (Cristol J.P. and Sirois P. Res. Commun. Chem. Pathol., 59, 423 (1988)).
The mienteric plexus is extracted from a 2-3 cm segment of the terminal portion of the guinea-pig ileum, previously sacrificed by cervical dislocation. The plexus is put, at a tension of 0.5 g, in a 5 ml organ bath, containing a solution of Tyrode (137 mM NaCl, 2.7 mM KCl, 1.4 mM CaCl2, 0.4 mM NaH2PO4, 11.9 mM NaHCO3, 0.8 mM MgSO4, 5.5 mM glucose), saturated with carbogen gas (95% 02-5% CO2) at 37°C. The solution also contains indomethacin (3.3 µM) and atropine (0.4 µM) to remove the action of the intrinsic prostaglandins and the cholinergic responses.
After a 45 minute stabilization period a maximum isotonic response is obtained (100% contractile response) adding to the bath chamber the LTD4 agonist (3 nM). This process is repeated until the same contraction response is obtained twice. The […] measures are made in an isotonic transducer.
After stabilization is restored, the product under test is incubated at different concentrations (dissolved in 0.1% final concentration DMSO) for 2.5 minutes, and after that the contraction with LTD4 is induced again.
The antagonistic activity is expressed as IC50, the concentration of compound which reduces by 50% the maximum contraction.

The next assay addresses T1, LTD4 receptors (Cavia porcellus, UniProt Q2NNR5).
T1 construct: Guinea pig lung membranes, containing the LTD4 receptors; from tissue; host or cells: guinea-pig lung membranes
T1 sequence (Q2NNR5 1-340): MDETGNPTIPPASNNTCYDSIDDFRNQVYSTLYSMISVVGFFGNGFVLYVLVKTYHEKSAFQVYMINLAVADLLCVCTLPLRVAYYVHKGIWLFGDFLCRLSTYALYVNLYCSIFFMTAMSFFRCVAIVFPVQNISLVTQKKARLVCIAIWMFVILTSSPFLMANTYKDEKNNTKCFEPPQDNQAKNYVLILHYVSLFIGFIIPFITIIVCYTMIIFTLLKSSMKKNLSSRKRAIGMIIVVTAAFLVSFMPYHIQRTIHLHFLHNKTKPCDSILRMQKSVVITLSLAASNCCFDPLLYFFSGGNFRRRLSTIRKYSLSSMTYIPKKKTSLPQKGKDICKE
As to the kind of experiment: [3H]-LTD4 receptor binding inhibition test in guinea-pig lung membranes. The conditions noted are these: 0.5 nM [3H]-LTD4, 30 minutes at 25°C, Cheng-Prusoff. The procedure: [^3H]-LTD4 receptor binding inhibition test in quinea-pig lung membranes
These purified membranes (150 µg/ml) are added to an incubation mixture containing 10 mM of PIPES buffer (piperazin-N,N'-bis(2-ethanesulfonic acid) (pH 7.4), 10 mM of CaCl2, 10 mM of 5 MgCl2, 2 mM of cysteine, 2 mM of glycine, 0.5 nM of [^3H]-LTD4 (4700-6400 GBq/mmol) and different concentrations of the product under test in a final volume of 310 µl. The reaction mixture is incubated for 30 minutes at 25°C.
The radioligand bound to the membranes is separated from the free one by dilution with 4 ml washing buffer (10 mM Tris-HCl (pH 7.4) and 100 mM NaCl) at 0°C and filtration with Whatman GF/B filters, by means of a Brandel Cell Harvester. The filters are washed 4 times with a total volume of 16 ml of washing buffer at 0°C. The radioactivity present in the filters is determined by liquid scintillation.
The specific binding is defined as the difference between the total binding of [^3H]-LTD4 and the nonspecific binding determined in the presence of 1 µM LTD4.

In general, IC50 refers to the concentration that gives 50% inhibition. The low end stands for inhibition by little substance, the high end for a need for much substance. What is called Ki is a measure of affinity in units of concentration, obtained from inhibition or displacement. High values mean a looser hold on the target, low ones a stronger hold on the target.

The compound `CC(C(=O)NCc1ccc(-c2nnn[nH]2)cc1)c1ccc2cc(OCc3ccc4ccccc4n3)ccc2c1` (centres unmarked) [Example 1, N-[4-(1H-5-tetrazolyl)phenylmethyl]-2-[6-(2-quinolinylmethoxy)-2-naphthyl]propanamide] displayed an IC50 in assay [1] of 0.013 µM. `CC(C(=O)NCc1cccc(-c2nnn[nH]2)c1)c1ccc2cc(OCc3ccc4ccccc4n3)ccc2c1` (centres unmarked) [Example 2, N-[3-(1H-5-tetrazolyl)phenylmethyl]-2[6-(2-quinolinylmethoxy)-2-naphthyl]propanamide] returned an IC50 in assay [1] of 0.066 µM. Further, the Ki on LTD4 receptors turned out to be 0.0295 ± 0.003 µM. The like results for `CC(C(=O)NCc1ccccc1-c1nnn[nH]1)c1ccc2cc(OCc3ccc4ccccc4n3)ccc2c1` (centres unmarked) [Example 3, N-[2-(1H-5-tetrazolyl)phenylmethyl]-2-[6-(2-quinolinylmethoxy)-2-naphthyl]propanamide] were, in that order, 0.018 µM and 0.012 ± 0.003 µM. Compound `CC(C(=O)Nc1ccc(Cc2nnn[nH]2)cc1)c1ccc2cc(OCc3ccc4ccccc4n3)ccc2c1` (centres unmarked) [Example 5, N-[4-(1H-5-tetrazolyl)methylphenyl]-2-[6-(2-quinolinylmethoxy)-2-naphthyl]propanamide] came in with an IC50 in assay [1] greater than 0.1 µM. Moreover, at LTD4 receptors, the Ki was found to be 0.034 ± 0.005 µM.

In assay [1], `CC(C(=O)Nc1ccc(Cc2nn[nH]n2)cc1)c1ccc2cc(OCc3ccc4ccccc4n3)ccc2c1` (centres unmarked) [Example 6, N-[4-(1H-5-tetrazolyl)methylphenyl]-2-[6-(2-quinolinylmethoxy)-2-naphthyl]propanamide (sodium salt)] yielded an IC50 greater than 0.1 µM. On LTD4 receptors, this compound registered a Ki of 0.0327 ± 0.003 µM.

On to `CC(C(=O)Nc1ccc(CCCC(=O)O)cc1)c1ccc2cc(OCc3ccc4ccccc4n3)ccc2c1` (centres unmarked) [Example 10, 4-[4-[2-[6-(2-quinolinylmethoxy)-2-naphthyl]propanamido]phenyl]butanoic acid], for which the IC50 in assay [1] was greater than 0.1 µM. At LTD4 receptors, this compound registered a Ki of 0.0385 ± 0.0063 µM. Taken in the same sequence, the figures for `CC(C(=O)NCc1cccc(C(=O)O)c1)c1ccc2cc(OCc3ccc4ccccc4n3)ccc2c1` (centres unmarked) [Example 14, 3-[2-[6-(2-quinolinylmethoxy)-2-naphthyl]propanamidomethyl]benzoic acid] were 0.075 µM and 0.068 ± 0.005 µM. Regarding `CC(C(=O)Nc1cccc(CC(=O)O)c1)c1ccc2cc(OCc3ccc4ccccc4n3)ccc2c1` (centres unmarked) [Example 18, 3-[2-[6-(2-Quinolinylmethoxy)-2-naphthyl]propanamido]phenylacetic acid], at LTD4 receptors, affinity was put at a Ki of 0.134 ± 0.018 µM. On LTD4 receptors, `CC(C(=O)Nc1ccc(CCCC(=O)O)cc1)c1ccc2cc(OCc3ccc4ccc(Cl)cc4n3)ccc2c1` (centres unmarked) [Example 20, 4-[4-[2-[6-[(7-chloro-2-quinolinyl)-methoxy]-2-naphthyl]propanamido]phenyl]butanoic acid] yielded a Ki of 0.19 ± 0.021 µM. The compound `O=C(Cc1ccc2cc(OCc3ccc4ccccc4n3)ccc2c1)NCc1ccc(-c2nnn[nH]2)cc1` [Example 21, N-[4-(1H-5-tetrazolyl)phenylmethyl]-6-(2-quinolinylmethoxy)-2-naphthaleneacetamide] displayed an IC50 in assay [1] of 0.006 µM. The compound also yielded a Ki at LTD4 receptors of 0.0055 ± 0.0005 µM. The like results for `O=C(O)CCCc1ccc(NC(=O)c2ccc3cc(OCc4ccc5ccccc5n4)ccc3c2)cc1` [Example 23, 4-[4-[[6-(2-quinolinylmethoxy)-2-naphthyl]carboxamido]phenyl]butanoic acid] were, in that order, greater than 0.1 µM and 0.03 ± 0.0012 µM.

With `O=C(NCc1cccc(-c2nnn[nH]2)c1)c1ccc2cc(OCc3ccc4ccccc4n3)ccc2c1` [Example 24, N-[3-(1H-5-tetrazolyl)phenylmethyl]-6-(2-quinolinylmethoxy)-2-naphthalenecarboxamide], the Ki on LTD4 receptors amounted to 0.028 ± 0.003 µM.

Consider `O=C(O)CCCc1ccc(NC(=O)c2ccc3ccc(OCc4ccc5ccccc5n4)cc3c2)cc1` [Example 26, 4-[4-[[7-(2-quinolinylmethoxy)-2-naphthyl]carboxamido]phenyl]butanoic acid], for which the IC50 in assay [1] stood at 0.038 µM.

`O=C(NCc1ccc(-c2nnn[nH]2)cc1)c1ccc2ccc(OCc3ccc4ccccc4n3)cc2c1` [Example 27, N-[4-(1H-5-tetrazolyl)phenylmethyl]-7-(2-quinolinylmethoxy)-2-naphthalenecarboxamide] registered an IC50 in assay [1] of 0.028 µM. At LTD4 receptors, this compound showed a Ki of 0.0078 ± 0.002 µM. For `O=C(O)c1ccc(CCNC(=O)c2ccc3ccc(OCc4ccc5ccccc5n4)cc3c2)cc1` [Example 29, 4-[2-[[7-(2-quinolinylmethoxy)-2-naphthyl]carboxamido]ethyl]benzoic acid], in assay [1], the IC50 is 0.008 µM. Moreover, the Ki at LTD4 receptors is 0.001 ± 0.0001 µM. Consider `O=C(NCCc1ccc(-c2nnn[nH]2)cc1)c1ccc2ccc(OCc3ccc4ccccc4n3)cc2c1` [Example 30, N-[4-(1H-5-tetrazolyl)phenylethyl]-7-(2-quinolinylmethoxy)-2-naphthalenecarboxamide], for which the IC50 in assay [1] was 0.024 µM. At LTD4 receptors, `O=C(O)CCCc1ccc(C(=O)NCc2ccc3cc(OCc4ccc5ccccc5n4)ccc3c2)cc1` [Example 32, 4-[4-[[6-(2-quinolinylmethoxy)-2-naphthyl]methylaminocarbonyl]phenyl]butanoic acid] showed a Ki of 0.044 ± 0.015 µM. `O=C(NCCCc1ccc(-c2nnn[nH]2)cc1)c1ccc2ccc(OCc3ccc4ccccc4n3)cc2c1` [Example 33, N-[4-(1H-5-tetrazolyl)phenylpropyl]-7-(2-quinolinylmethoxy)-2-naphthalenecarboxamide] came in with an IC50 in assay [1] of 0.087 µM. On LTD4 receptors, this compound showed an inhibition constant (Ki) of 0.0131 ± 0.002 µM.
